Measured values from US6497872B1, “Neural transplantation using proliferated multipotent neural stem cells and their progeny” (NeuroSpheres Holdings Ltd., priority 1991, dated 2002).

Assays:
[1] = test system: constitutively proliferating subependymal cells of the lateral ventricles; test: In vivo proliferation of retrovirus β-gal labelled cells of the lateral ventricle (Example 27); set-up: species or system mouse
Description: A replication incompetent retrovirus containing the β-galactosidase gene [as described in Walsh and Cepko, Science 241:1342, (1988)] was injected into the forebrain lateral ventricles of CD1 adult male mice (25-30 g from Charles River). The injected retrovirus was harvested from the BAG cell line (ATCC CRL-9560) according to the method of Walsh and Cepko (supra). Mice were anesthetized using 65 mg/kg, i.p. sodium pentobarbital. Unilateral stereotactic injections of 0.2-1.0 μl of retrovirus were injected into the lateral ventricle using a 1 μl Hamilton syringe. The coordinates for injection were AP +4.2 mm anterior to lambda, L ±0.7 mm, and DV −2.3 mm below dura, with the mouth bar at −2 mm below the interaural line.
On the same day as, one day, or six days following the retrovirus injection, an infusion cannulae attached to a 0.5 μl/hour ALZET osmotic mini-pumps filled with 3.3-330 μg/ml of EGF were surgically implanted into the lateral ventricles at the identical stereotactic coordinates as stated above. The infusion cannula kits were obtained from ALZA. The infusion cannulae were cut to 2.7 mm below the pedestal. The pumps were secured to the mouse skull by use of acrylic cement and a skull screw contralateral and caudal to the injection site. […]

[2] = test system: EGF-generated neurospheres; test: Effect of growth factors on neurosphere differentiation, immunocytochemistry (Example 8); assay type: cell-based, mouse; conditions: 20 ng/ml
Description: Six to 8 days after the first passage, the neurospheres were removed and centrifuged at 400 r.p.m. The EGF-containing supernatant was removed and the pellet suspended in EGF-free complete medium containing 1% FBS. Neurospheres (approximately 0.5-1.0×10^6 cells/well) were plated on poly-L-ornithine-coated (15 μg/ml) glass coverslips in 24 well Nuclon (1.0 ml/well) culture dishes. After 24 hours in culture, the coverslips were transferred to 12 well (Costar) culture dishes containing complete medium containing 0.5% FBS. The medium was changed every 4-7 days. This differentiation procedure is referred to as the “Rapid Differentiation Paradigm” or RDP.
Six to 8 days after the first passage, the neurospheres were removed and centrifuged at 400 r.p.m. The EGF-containing media was removed and the pellet was suspended in EGF-free complete medium containing 1% FBS. The neurospheres were mechanically dissociated into single cells with a fire-polished Pasteur pipette and centrifuged at 800 r.p.m. for 5 minutes. Between 0.5×10^6 and 1.0×10^6 cells were plated on poly-L-ornithine-coated (15 μg/ml) glass coverslips in 24 well Nuclon (1.0 ml/well) culture dishes. The EGF-free culture medium containing 1% FBS was changed every 4-7 days.
Neurospheres were washed free of EGF by serial transfers through changes of EGF-free medium. A single neurosphere was plated onto poly-L-ornithine-coated (15 μg/ml) glass coverslips in a 24-well plate. The culture medium used was complete medium with or without I % FBS. The medium was changed every 4-7 days.
Neurospheres were washed free of EGF by serial transfers through changes of EGF-free medium. A single neurosphere was mechanically dissociated in a 0.5 ml Eppendorf centrifuge tube and all the cells were plated onto a 35 mm culture dish. Complete medium was used with or without 1% FBS.
The effects of CNTF, FGF-2, BDNF, and retinoic acid on neurosphere differentiation were tested using the differentiation paradigms set forth in Example 7.
The effect of CNTF was assayed in paradigms 1 and 3. For both paradigms, CNTF was added either at the beginning of the experiment at a concentration of 10 ng/ml or daily at a concentration of 1 ng/ml.
Three different antibodies directed against 04, galactocerebroside (GalC) and MBP were used to study the effect of CNTF on the oligodendrocytes of paradigm 1. CNTF had no effect on the number of 04(+) cells, but there was an increase in the number of GalC(+) and MBP(+) cells compared with the control. Thus it appears that CNTF plays a role in the maturation of oligodendrocytes.
The effect of FGF-2 was tested using paradigms 2 and 4. In paradigm 2, 20 ng/ml of FGF-2 was added at the beginning of the experiment and cells were stained 7 days later. FGF-2 increased the number of GFAP(+) cells and the number of NSE(+) cells.
In paradigm 4, 20 ng/ml of FGF-2 was added at the beginning of the experiment and assayed 7-10 days later. […] It induced two different cell types to divide, neuroblasts and bipotential progenitor cells. The neuroblast produced, on average, 6 neurons while the bipotential cell produced approximately 6 neurons and a number of astrocytes.

[3] = paradigm 2, stained 7 days later

## bFGF: basic fibroblast growth factor, recombinant human (R & D Systems)
[1]; 33 μg/ml infusion
  number of β-gal labelled cells: increase
[1]; 6 days infusion
  migration of β-gal labelled cells: not accompanied by any additional migration
[2]; [3]
  number of GFAP(+) cells: increased
  number of NSE(+) cells: increased
[2]; paradigm 4
  neurons produced per bipotential cell: approximately 6 neurons
  neurons produced per neuroblast, on average: 6 neurons
[2]; paradigm 4, 7-10 days
  proliferation of neural stem cell progeny generated by the EGF-responsive stem cell: induced the proliferation
